This note sets out measurements from PMC9223658, “New Borane-Protected Derivatives of α-Aminophosphonous Acid as Anti-Osteosarcoma Agents: ADME Analysis and Molecular Modeling, In Vitro Studies on Anti-Cancer Activities, and NEP Inhibition as a Possible Mechanism of Anti-Proliferative Activity” (International Journal of Molecular Sciences, 2022).

Data set [1] has as its system HOS cells. Description: Migration, wound and transwell assays. Particulars: 24 h; for decrease of migration: wound and transwell assays. In kind it is cell-based, human. As to the method:
(§1) The migration of the HOS and Saos-2 cells was examined using the wound and transwell assays. The wound assay was performed in plastic plates (3-cm diameter, Nunc), in which the osteosarcoma cells were seeded at a density of 3.0 × 10^5 cells/mL. The assay was performed as described previously. Briefly, confluent cell cultures (with wounds) were treated with compounds 4 and 6 at concentrations of 12.5, 25, 50 µM and 20, 40, 80 µM as well as 15, 30, 60 µM and 21.25, 42.5, 85 µM for 24 h, respectively. The solutions of the compounds were prepared in a medium with 2% FBS. The control was constituted by the untreated cells (0 µM). To determine the migratory activity of the cells, the width of the wounds (at 0 and 24 h after incubation) was measured, and photos were taken using an inverted microscope Olympus CKX41 equipped with Image Processing (CellSense) software (Olympus, Tokyo, Japan). The results were expressed as a percentage of wound closure calculated using the following formula: ((width of wound at 0h—width of wound after 24h)/width of wound at 0h) × 100%.
(§2) The transwell migration assay was performed using inserts equipped with a membrane with 8 µm pore size in 24-well plates (Corning, Durham, NC, USA). To this end, the osteosarcoma cells (1 × 10^6 cells/mL) were suspended in a medium supplemented with 0.5% FBS and compounds 4 or 6 at the same concentrations as in the wound assay. The cells were added to the top chambers. The bottom chambers were filled with an appropriate medium supplemented with 10% FBS. After 24 h of incubation, the number of osteosarcoma cells migrating to the lower surface of the insert membrane was quantified using Calcein AM (Sigma Aldrich), which releases the fluorophore after intracellular degradation. The fluorescence was measured by means of a Perkin Elmer Victor^TM plate reader (Thermo Fisher Scientific, Rockford, IL, USA). The cell migratory activity after the treatment with compounds 4 and 6 was calculated as a percentage of invading cells in comparison with the number of invading untreated cells (100%; control).

In data set [2] the test system is Saos-2 cells. The experiment in a line: Migration, wound and transwell assays. The following applies: Saos-2, 24 h. In kind it is cell-based, human. As to the method:
as §1, §2

Data set [3] deals with HOS cells. The experiment in a line: Cell cycle assay (PI/RNase, flow cytometry). In kind it is cell-based, human. The following applies: 72 h. As to the method: (§3) To examine the influence of compounds 4 and 6 on the distribution of cells in the cell cycle phases, the HOS and Saos-2 osteosarcoma cells (3.0 × 10^4 cells/mL) were seeded into 6-well plates (Nunc) and incubated with compounds 4 and 6 at concentrations of 12.5, 25, 50 µM and 20, 40, 80 µM as well as 15, 30; 60 µM and 21.25, 42.5, 85 µM, respectively. The compound solutions were prepared in a medium with 10% FBS. The control was constituted by the untreated cells (0 µM). The cells were treated for 72 h. Next, floating and adherent cells were harvested and subjected to further steps of the PI staining procedure (PI/RNase Staining Buffer, BD Pharmingen^TM, BD Biosciences, San Jose, CA, USA) previously described. The PI fluorescence intensity was measured using FACS Calibur (BD Pharmingen^TM), and the obtained data were analyzed using Cell Quest Pro Version 6.0. for the Macintosh operating system (BD Pharmingen^TM). The presented results were calculated as a percent of cells in the respective cell cycle phases (sub-G1, G0/G1, S and G2) among all the analyzed cells.
On the technique in general: In flow cytometry, cells or beads pass a laser one at a time.

Data set [4] concerns Saos-2 cells. Description: Cell cycle assay (PI/RNase, flow cytometry). The following applies: 72 h. In kind it is cell-based, human. On the procedure:
as §3

Data set [5] in a line: MTT viability assay, 24 h. In kind it is cell-based. The following applies: human, normal osteoblasts hFOB 1.19 cells, 2% FBS, read-out: CC50 (µM ± SD) hFOB 1.19. As to the method: One of the features specific totumor cells is the unlimited potential for proliferation. […] To this end, the assay conditions were established suchthat they encourage the proliferation of OS cells, i.e., the cell cultures at low density were incubated with compounds diluted in the growth medium (10% FBS) for an extended time of 96 h. Additionally, cisplatin, i.e., a common cytostatic used in osteosarcoma treatment, was included as a positive control in this study. Moreover, since the new generation of anti-cancer compounds is highly desired to be inert (non-cytotoxic) towards normal cells, the influence of compounds 1–7 on the viability of human normal cells (osteoblasts hFOB 1.19 and colon fibroblasts CCD-18Co) was also determined.To this end, the assay conditions were established such that they restrict the proliferation of OS cells and to establish whether the compounds have cytotoxic potential, i.e., the cell cultures were incubated with compounds diluted in the medium with a reduced concentration of FBS (2%) for a shortened time of 24 h. […] However, this activity varied depending on both the types of the compounds and the osteosarcoma cell lines (Table 4).
The anti-proliferative activity of compounds 1–7 against the HOS and Saos-2 osteosarcoma cells and the viability of the human normal hFOB 1.19 and CCD-18Co cells were screened by means of the MTT method. This method is commonly used to assess cell viability and proliferation or to determine the cytotoxicity of any compounds. It is a reliable method for this purpose because it is based on measurement of the level reduction in MTT dye to formazan byNAD(P)H-dependent oxidoreductase enzymes of metabolically active cells.
To assess the viability of human normal cells, confluent hFOB 1.19 (3 × 10^5 cells/mL) and CCD-18Co (1 × 10^5 cells/mL) cells seeded in 96-well plates (Nunc) were incubated with compounds 1–7 at concentrations of 3.125, 6.25, 12.5, 25, 50, 100 and 200 µM prepared in medium with 2% FBS (maintaining medium) for 24 h. The control was constituted by the untreated cells (0 µM). Next, the MTT assay was carried out as described previously.
The results of these assays were calculated as a percent of the untreated cells (100%; control). Then, the IC50 (concentration resulting in 50% inhibition of proliferation) and CC50 (concentration resulting in a 50% decrease in viability) values were calculated from a non-linear regression (log(inhibitor) vs. normalized response-variable slope) using GraphPad Prism 5.0 (GraphPAD Software Inc., San Diego, CA, USA). The IC50 and CC50 results were presented as themean ± SD of at least three experiments. In the case of the BrdU assay, the results were presented as a percent of untreated cells (100%; control).

Turning to `[BH3-][P+](OC(C)C)(OC(C)C)C(Nc1ccc(Br)cc1)c1ccc([N+](=O)[O-])cc1` (stereo not shown) [Compound 4, [1-(N-p-bromophenylamino)]-1-(p-nitrophenyl)methylphosphonousacid-borane diisopropyl ester], in data set [1] (25 µM), the decrease of migration result is listed as “approx. 19%”. The decrease of migration entry in data set [1] (50 µM) was “approx. 38%”. For the same compound, the effect on migration entry in data set [2] is “not affected”. In data set [3] (25 µM and 50 µM), the “number of cells at G0/G1 phase” value is “significant decrease”; the “number of cells at sub-G1 and G2 phases” value is given as “statistically significant increase”. For the same compound, the “number of cells at sub-G1 phase” value in data set [4] (Saos-2, 30 µM and 60 µM) is “significant increase”. Moreover, the CC50 – broadly, the concentration that lowers cell viability or growth by half – at 24 h in data set [5] is 189 ± 36.4 µM.

Regarding `[BH3-][P+](OC(C)C)(OC(C)C)C(Nc1ccc(C)cc1)c1ccccc1` (stereo not shown) [Compound 6, [1-(N-p-tolylamino)]-1-phenylmethylphosphonous acid-borane diisopropyl ester], the depression of migration entry in data set [1] (80 µM) was “approx. 20%”. Moreover, the effect on migration entry in data set [2] is listed as “not affected”. In addition, in data set [3] (40 µM and 80 µM), the “number of cells at G0/G1 phase” value is listed as “significant decrease”; the “number of cells at sub-G1 and G2 phases” value is “statistically significant increase”. Also, the “number of cells at sub-G1 phase” value in data set [4] (Saos-2, 42.5 µM and 85 µM) was “significant increase”. Besides, the CC50 at 24 h in data set [5] came out at 266 ± 110 µM.
